Reference: patent US20090004302A1, “Methods and Therapeutic Compositions Comprising Plant Extracts for the Treatment of Cancer” (priority 2004, published 2009)
“And” between values parts separate entries of the source, which are not always exact repeats. Equal values may be shown once.

Columns and labels:
[1] = test system: B16F10 melanoma subcutaneous tumour; test: B16F10 melanoma model of tumour growth; type: in vivo, C57BL/6 mice; conditions: Day 14
Procedure: The B16F10 melanoma model in C57BL/6 mice was used for this study. B16F10 cells (1×10^6 cells, screened for mycoplasma) were injected subcuteanously on Day 0 on the right flank of each mouse. The mice were divided into 9 groups and received the treatments outlined below. Plant extracts A and B (see Example VI) were used in this study.
Oral administration of plant extracts was initiated 7 days prior to injection of the B16F10 cells (i.e. on day-7) and continued for […] with or without sub-optimal doses of doxorubicin (see below).
Group 1: The vehicle used for administration of the plant extracts was used as a negative control for the experiment. Group 2: Doxorubicin (2.5 mg/kg), a standard positive control in the B16F10 melanoma model at optimal dosage, was injected intraperitoneally on days 5, 9 and 13. Group 3: Doxorubicin (1 mg/kg), a sub-optimal dose in this model, was injected intraperitoneally on days 5, 9 and 13. Group 4: Therapeutic plant extract A (PA1) was administered by gavage (200 mg/kg) from days-7 to 14. Group 5: Therapeutic plant extract B (PB1) was administered by gavage (200 mg/kg) from days-7 to 14. Group 6: Therapeutic combination 5 (TC5) was administered to this group. TC5 comprised plant extract A and doxorubicin (1 mg/kg). Plant extract A was administered by gavage (200 mg/kg) from days-7 to 14 and doxorubicin was injected intraperitoneally on days 5, 9 and 13. Group 7: Therapeutic combination 6 (TC6) was administered to this group. TC6 comprised plant extract B and doxorubicin (1 mg/kg). Plant extract B was administered by gavage (200 mg/kg) from days-7 to 14 and doxorubicin was injected intraperitoneally on days 5, 9 and 13. Group 8: Therapeutic combination 7 (TC7) was administered to this group. TC7 comprised plant extract A, plant extract B and doxorubicin (1 mg/kg). […]
The subcutaneous tumour was measured on each animal with an electronic calliper starting on day 5 and repeated on days 8, 11 and 14 and the volume of tumour was calculated according to formula: […]. […]

[2] = test system: LLC1 cells clone M27 lung tumour metastases; test: Lewis lung carcinoma (LLC) model of tumour metastasis; type: in vivo, C57BL/6 mice; conditions: for Mean (SD) tumours/animal / % reduction compared to control (lung tumour metastases) / Total tumour burden (per group): Day 14
Procedure: The Lewis lung carcinoma model in C57BL/6 mice was used for this study. Lewis lung carcinoma is an aggressive, highly metastatic cell line. LLC1 cells clone M27 (3×10^5 cells, screened for mycoplasma) were injected on Day 0 into the tail vein of each mouse. The mice were divided into 7 groups and received the treatments outlined below. Oral administration of plant extracts was initiated 9 days prior to injection of LLC cells (i.e. on day-9) and continued for […] along with sub-optimal doses of cisplatin (see below). Group 1: […] Group 2: […] Group 3: […] Group 4: Therapeutic combination 1 (TC1) was administered to this group. […] Group 5: Therapeutic combination 2 (TC2) was administered to this group. […] Group 6: Therapeutic combination 3 (TC3) was administered to this group. […] Group 7: Therapeutic combination 4 (TC4) was administered to this group. […] At the end of the experiment (Day 14), the animals were humanely sacrificed, the lungs resected and fixed by direct immersion for approximately 24 hrs in Bouin's fixing media. Metastatic colonies on each lung surface of each mouse were counted by direct observation under a dissecting microscope in a blinded manner by three different investigators.

SMILES | Volume (mm^3) of tumour ([1]; doxorubicin 1 mg/kg i.p. days 5, 9, 13) [mm^3] | % growth of tumour ([1]; doxorubicin 1 mg/kg i.p.) [%] | Diameter (mm) of tumour ([1]; doxorubicin 1 mg/kg i.p.) [mm] | Mean (SD) tumours/animal ([2]; cisplatin 2 mg/kg i.p. days 1, 4, 7, 10, 13) | % reduction compared to control (lung tumour metastases) ([2]; cisplatin 2 mg/kg i.p.) | Total tumour burden (per group) ([2]; cisplatin 2 mg/kg i.p.) | body weight of animals ([2]; cisplatin 5 mg/kg dose) | Mean (SD) tumours/animal ([2]; cisplatin 5 mg/kg i.p. days 1, 4, 7, 10, 13) | % reduction compared to control (lung tumour metastases) ([2]; cisplatin 5 mg/kg i.p.) | Total tumour burden (per group) ([2]; cisplatin 5 mg/kg i.p.)
COc1cccc2c1C(=O)c1c(O)c3c(c(O)c1C2=O)C[C@@](O)(C(=O)CO)C[C@@H]3O[C@H]1C[C@H](N)[C@H](O)[C@H](C)O1 [Doxorubicin] | 2682 ± 220 | 247 ± 30 | 21.4 ± 1.1 |  |  |  |  |  |  | 
N.N.[Cl][Pt][Cl] [Cisplatin] |  |  |  | 24.70 | 27% and 26.7% | 346 | sharp decrease | 1.46 | 96% and 95.6% | 21
